Results as given in PMC10583239 (CPT: Pharmacometrics & Systems Pharmacology, 2023).

Experiment: Clinical DDI cohort: midazolam with pomotrelvir 1050 mg b.i.d.
[1] = 1 mg midazolam alone, Day 1, N = 8
[2] = midazolam + pomotrelvir 1050 mg twice daily, Day 6
[3] = midazolam + pomotrelvir 1050 mg twice daily, Day 11

| SMILES | AUCinf geometric mean [1] [ng·h/mL] | AUClast geometric mean [1] [ng·h/mL] | Cmax geometric mean [1] [ng/mL] | AUCinf geometric mean ratio (MDZ + POMO)/(MDZ) (Day 6 vs Day 1) | AUClast geometric mean ratio (MDZ + POMO)/(MDZ) (Day 6 vs Day 1) | Cmax geometric mean ratio (MDZ + POMO)/(MDZ) (Day 6 vs Day 1) | AUCinf geometric mean ratio (MDZ + POMO)/(MDZ) (Day 11 vs Day 1) | AUClast geometric mean ratio (MDZ + POMO)/(MDZ) (Day 11 vs Day 1) | Cmax geometric mean ratio (MDZ + POMO)/(MDZ) (Day 11 vs Day 1) | AUCinf geometric mean [2] [ng·h/mL] | AUClast geometric mean [2] [ng·h/mL] | Cmax geometric mean [2] [ng/mL] | AUCinf geometric mean [3] [ng·h/mL] | AUClast geometric mean [3] [ng·h/mL] | Cmax geometric mean [3] [ng/mL] | Cmax (both, human, plasma, oral, 1 mg) [ng/mL] |
| --- | --- | --- | --- | --- | --- | --- | --- | --- | --- | --- | --- | --- | --- | --- | --- | --- |
| OCc1ncc2n1-c1ccc(Cl)cc1C(c1ccccc1F)=NC2 [1‐OH‐midazolam, 1‐hydroxy‐midazolam] | 4.76 | 4.72 | 1.36 | 0.65 | 0.62 | 0.53 | 0.56 | 0.56 | 0.58 | 3.09 | 2.87 | 0.73 | 2.66 | 2.64 | 0.8 | – |
| Cc1ncc2n1-c1ccc(Cl)cc1C(c1ccccc1F)=NC2 [Midazolam, midazolam, reference compound] | – | – | – | 1.48 | 1.51 | 1.09 | 1.33 | 1.36 | 1.09 | – | – | 4.44 | – | – | 4.44 | 4.06 |
